Key:
IL8 (Interleukin 8) = assay: In vitro model of induced atopic dermatitis, RT-qPCR: IL8; format: cell-based, human; settings: NHEK + Poly(I:C), IL4, IL13, 24 h; 0.28 mM DEXA; control NHEK = 1
Experimental: (§1) The pharmacological model was described by Castex-Rizzi et al. (Br J Dermatol. 2014. 170 Suppl 1:12-8)
(§2) PCC extracts collected from crushed, dried, standardized Mimosa pudica culture medium W01D15 (with bioconversion) were dissolved/diluted in solution in 40% EtOH at initial concentrations of 75 mg/ml. The compounds were solubilized extemporaneously for viability tests as well as at the appropriate dose in order to measure pharmacological action on the model of induced atopic dermatitis.
(§3) Normal human epidermal keratinocytes (NHEKs) from Lonza. The cells are amplified under standard culture conditions.
(§4) NHEK cells are seeded and cultured in Keratinocyte-SFM culture medium. […]
(§5) Extraction was carried out using RNABle (Eurobio) and the RNeasy Mini Kit from QIAGEN. The total RNAs extracted are assayed on a spectrophotometer (NanoDrop, ND1000, Thermo Scientific) and their qualities analysed on agarose gel.
(§6) Real-time PCR is a precise, sensitive and rapid method that allows the relative quantification of the rate of expression of a target gene relative to that of a ubiquitously expressed reference gene. This technique makes it possible to quantify messenger RNA. […] Incorporation of a fluorophore (SYBR Green) during the hybridization step of exponential amplification allows quantification and real-time monitoring of the amount of neo-formed amplification product. […]

[1] = test system: DEFB103A (Defensin, beta 103B); assay: In vitro model of induced atopic dermatitis, RT-qPCR: DEFB103A; format: cell-based, human; settings: NHEK + Poly(I:C), IL4, IL13, 24 h; 0.28 mM DEXA; control NHEK = 1
Experimental: as §1, §2, §3, §4, §5, §6

[2] = test system: CCL13 (Chemokine (C-C motif) ligand 13); assay: In vitro model of induced atopic dermatitis, RT-qPCR: CCL13; format: cell-based, human; settings: NHEK + Poly(I:C), IL4, IL13, 24 h; 0.28 mM DEXA; control NHEK = 1
Experimental: as §1, §2, §3, §4, §5, §6

[3] = test system: IL1B (Interleukin 1, beta); assay: In vitro model of induced atopic dermatitis, RT-qPCR: IL1B; format: cell-based, human; settings: NHEK + Poly(I:C), IL4, IL13, 24 h; 0.28 mM DEXA; control NHEK = 1
Experimental: as §1, §2, §3, §4, §5, §6

[4] = test system: CCL5 (Chemokine (C-C motif) ligand 5); assay: In vitro model of induced atopic dermatitis, RT-qPCR: CCL5; format: cell-based, human; settings: NHEK + Poly(I:C), IL4, IL13, 24 h; 0.28 mM DEXA; control NHEK = 1
Experimental: as §1, §2, §3, §4, §5, §6

[5] = test system: nitrite production (NO synthesis induced by iNOS) in RAW264.7 cells; assay: Nitrite assay (Griess) in LPS-activated RAW264.7 macrophages; format: cell-based; settings: Mus musculus, 1 μM dexamethasone 1 h before 0.2 μg/mL LPS, 24 h, read-out: inhibition of nitrite production (% i)
Text: (§7) In this example, we compare the anti-inflammatory activity of 2 Mimosa pudica extracts (E11 and E13). Extract E11 comes from ethyl acetate extraction of the dried and crushed Mimosa pudica leaves and extract E13 comes from extraction with the same solvent of the crushed materials derived from Mimosa pudica plant cell culture without bioconversion in an Erlenmeyer flask. The 2 extracts were weighed after evaporation of the solvent to dryness. They were taken up in DMSO. To evaluate and compare the anti-inflammatory activity of the 2 extracts in the same concentrations, we have an in vitro pharmacological test which consists in stimulating murine macrophages, RAW264.7 cells, that express on their surface the TLR4 receptor by the bacterial LPS according to (Kang et al. 2002. J Pharmacol Exp Ther. 302:138-144). Several parameters were studied and compared to a reference anti-inflammatory, dexamethasone: • nitrite production by the Griess technique. […]
The level of NO synthesis is evaluated in fresh or frozen (−80° C.) cell supernatants, without affecting the assay. The principle of the assay is based on the Griess (diazotization) reaction which produces a pink azo compound with absorbance at 540 nm.
(§8) Concentrations are expressed as averages. […]

[6] = test system: IL1A (Interleukin 1, alpha); assay: In vitro model of induced atopic dermatitis, RT-qPCR: IL1A; format: cell-based, human; settings: NHEK + Poly(I:C), IL4, IL13, 24 h; 0.28 mM DEXA; control NHEK = 1
Experimental: as §1, §2, §3, §4, §5, §6

[7] = test system: S100A7 (S100 calcium binding protein A7); assay: In vitro model of induced atopic dermatitis, RT-qPCR: S100A7; format: cell-based, human; settings: NHEK + Poly(I:C), IL4, IL13, 24 h; 0.28 mM DEXA; control NHEK = 1
Experimental: as §1, §2, §3, §4, §5, §6

[8] = test system: RNASE7 (Ribonuclease, RNase A family, 7); assay: In vitro model of induced atopic dermatitis, RT-qPCR: RNASE7; format: cell-based, human; settings: NHEK + Poly(I:C), IL4, IL13, 24 h; 0.28 mM DEXA; control NHEK = 1
Experimental: as §1, §2, §3, §4, §5, §6

CX3CL1 (Fractalkine) = assay: In vitro model of induced atopic dermatitis, RT-qPCR: CX3CL1; format: cell-based, human; settings: NHEK + Poly(I:C), IL4, IL13, 24 h; 0.28 mM DEXA; control NHEK = 1
Experimental: as §1, §2, §3, §4, §5, §6

[9] = test system: CCL27 (Chemokine (C-C motif) ligand 27); assay: In vitro model of induced atopic dermatitis, RT-qPCR: CCL27; format: cell-based, human; settings: NHEK + Poly(I:C), IL4, IL13, 24 h; 0.28 mM DEXA; control NHEK = 1
Experimental: as §1, §2, §3, §4, §5, §6

[10] = test system: CCL11 (Chemokine (C-C motif) ligand 11); assay: In vitro model of induced atopic dermatitis, RT-qPCR: CCL11; format: cell-based, human; settings: NHEK + Poly(I:C), IL4, IL13, 24 h; 0.28 mM DEXA; control NHEK = 1
Experimental: as §1, §2, §3, §4, §5, §6

[11] = test system: TNF-alpha production in RAW264.7 cells; assay: TNF-alpha Luminex assay in LPS-activated RAW264.7 macrophages; format: cell-based; settings: Mus musculus, 1 μM dexamethasone 1 h before 0.2 μg/mL LPS, 24 h, read-out: inhibition of TNF-alpha production (% i)
Text: as §7, with “302:138-144).” for “302:138-144). Several parameters were studied and compared to a reference anti-inflammatory, dexamethasone: • nitrite production by the Griess technique.”
Simultaneous assay of TNF-alpha in the cell supernatants was performed using the Luminex xMAP (multi-analyte profiling) technology which is based on the principles of flow cytometry and ELISA in a 96-well microplate. The microbeads used as substrate incorporate two fluorochromes in a precise ratio, which gives them an identifying colour code (different fluorescences). […] The second laser, green, (λ=532 nm) excites the reporter fluorochrome attached to the specific detection antibody in order to quantify the cytokine. […]
as §8

[12] = test system: IL-6 secretion in RAW264.7 cells; assay: IL6 assay by ELISA in LPS-activated RAW264.7 macrophages; format: cell-based; settings: Mus musculus, 1 μM dexamethasone 1 h before 0.2 μg/mL LPS, 24 h, read-out: inhibition of IL-6 secretion (% i)
Text: In this example, we compare the anti-inflammatory activity of 2 Mimosa pudica extracts (E11 and E13). Extract E11 comes from ethyl acetate extraction of the dried and crushed Mimosa pudica leaves and extract E13 comes from extraction with the same solvent of the crushed materials derived from Mimosa pudica plant cell culture without bioconversion in an Erlenmeyer flask. The 2 extracts were weighed after evaporation of the solvent to dryness. They were taken up in DMSO. To evaluate and compare the anti-inflammatory activity of the 2 extracts in the same concentrations, we have an in vitro pharmacological test which consists in stimulating murine macrophages, RAW264.7 cells, that express on their surface the TLR4 receptor by the bacterial LPS according to (Kang et al. 2002. J Pharmacol Exp Ther. 302:138-144). Several parameters were studied and compared to a reference anti-inflammatory, dexamethasone: • nitrite production by the Griess technique. The nitrite level reflects the level of NO synthesis induced by inducible […] (iNOS). • cytokine secretion: interleukin-6 by ELISA • TNF-alpha production by multiplex assay Cell Culture
RAW264.7 cells are mouse macrophages in lineage. […]
as §8

IL15 (Interleukin 15) = assay: In vitro model of induced atopic dermatitis, RT-qPCR: IL15; format: cell-based, human; settings: NHEK + Poly(I:C), IL4, IL13, 24 h; 0.28 mM DEXA; control NHEK = 1
Experimental: as §1, §2, §3, §4, §5, §6

[13] = test system: TSLP (Thymic stromal lymphopoietin); assay: In vitro model of induced atopic dermatitis, RT-qPCR: TSLP; format: cell-based, human; settings: NHEK + Poly(I:C), IL4, IL13, 24 h; 0.28 mM DEXA; control NHEK = 1
Experimental: as §1, §2, §3, §4, §5, §6

[14] = test system: CCL20 (Chemokine (C-C motif) ligand 20); assay: In vitro model of induced atopic dermatitis, RT-qPCR: CCL20; format: cell-based, human; settings: NHEK + Poly(I:C), IL4, IL13, 24 h; 0.28 mM DEXA; control NHEK = 1
Experimental: as §1, §2, §3, §4, §5, §6

[15] = test system: TLR3 (Toll-like receptor 3); assay: In vitro model of induced atopic dermatitis, RT-qPCR: TLR3; format: cell-based, human; settings: NHEK + Poly(I:C), IL4, IL13, 24 h; 0.28 mM DEXA; control NHEK = 1
Experimental: as §1, §2, §3, §4, §5, §6

[16] = test system: IFNB1 (Interferon, beta 1, fibroblast); assay: In vitro model of induced atopic dermatitis, RT-qPCR: IFNB1; format: cell-based, human; settings: NHEK + Poly(I:C), IL4, IL13, 24 h; 0.28 mM DEXA; control NHEK = 1
Experimental: as §1, §2, §3, §4, §5, §6

[17] = test system: IL4R (Interleukin 4 receptor); assay: In vitro model of induced atopic dermatitis, RT-qPCR: IL4R; format: cell-based, human; settings: NHEK + Poly(I:C), IL4, IL13, 24 h; 0.28 mM DEXA; control NHEK = 1
Experimental: as §1, §2, §3, §4, §5, §6

SMILES: C[C@@H]1C[C@H]2[C@@H]3CCC4=CC(=O)C=C[C@]4(C)[C@@]3(F)[C@@H](O)C[C@]2(C)[C@@]1(O)C(=O)CO [dexamethasone]
- relative expression (RQ) of IL8 (IL8 (Interleukin 8)): 7.89
- relative expression (RQ) of DEFB103A [1]: 107.56
- relative expression (RQ) of CCL13 [2]: 1.98
- relative expression (RQ) of IL1B [3]: 2.63
- relative expression (RQ) of CCL5 [4]: 49.90
- inhibition at 1 µM [5]: 35%
- relative expression (RQ) of IL1A [6]: 8.54
- relative expression (RQ) of S100A7 [7]: 79.12
- relative expression (RQ) of RNASE7 [8]: 43.23
- relative expression (RQ) of CX3CL1 (CX3CL1 (Fractalkine)): 36.63
- relative expression (RQ) of CCL27 [9]: 0.71
- relative expression (RQ) of CCL11 [10]: 1.14
- inhibition at 1 µM [11]: 16%
- inhibition at 1 µM [12]: 38%
- relative expression (RQ) of IL15 (IL15 (Interleukin 15)): 29.16
- relative expression (RQ) of TSLP [13]: 1.80
- relative expression (RQ) of CCL20 [14]: 28.94
- relative expression (RQ) of TLR3 [15]: 2.79
- relative expression (RQ) of IFNB1 [16]: 1.90
- relative expression (RQ) of IL4R [17]: 7.03

Source: patent US10954488B2, “Extract of undifferentiated cells of Mimosa pudica and uses thereof in dermo-cosmetics” (PIERRE FABRE DERMO-COSMETIQUE, priority 2016, dated 2021)
